According to ChEMBL document CHEMBL4813945, “Discovery and development of novel pyrimidine and pyrazolo/thieno-fused pyrimidine derivatives as potent and orally active inducible nitric oxide synthase dimerization inhibitor with efficacy for arthritis” (Eur J Med Chem, 2021):

Columns and labels:
L02 [1] = assay: Cytotoxicity against human L02 cells assessed as cell viability by MTT assay; format: cell-based
RAW264.7 [2] = assay: Inhibition of LPS-induced NO release in mouse RAW264.7 cells preincubated for 1 hrs followed by LPS stimulation and measured after 24 hrs by Griess reagent based assay; format: functional, cell-based
RAW264.7 [3] = assay: Cytotoxicity against mouse RAW 264.7 cells assessed as cell viability by MTT assay; format: cell-based
RAW264.7 [4] = assay: Antiinflammatory activity against mouse RAW264.7 cells assessed as inhibition of LPS-induced NO production at 10 uM preincubated for 1 hrs followed by LPS stimulation and measured after 24 hrs by Griess assay relative to control; format: functional; settings: time 25 hrs
[5] = target: T1, Nitric oxide synthase, inducible (Mus musculus, UniProt P29477); assay: Inhibition of LPS induced NO-dependent iNOS activity in mouse RAW 264.7 cells preincubated for 1 hrs followed by LPS stimulation and measured after 24 hrs by Griess reagent based assay; format: cell-based, RAW264.7
T1 sequence (P29477 whole entry): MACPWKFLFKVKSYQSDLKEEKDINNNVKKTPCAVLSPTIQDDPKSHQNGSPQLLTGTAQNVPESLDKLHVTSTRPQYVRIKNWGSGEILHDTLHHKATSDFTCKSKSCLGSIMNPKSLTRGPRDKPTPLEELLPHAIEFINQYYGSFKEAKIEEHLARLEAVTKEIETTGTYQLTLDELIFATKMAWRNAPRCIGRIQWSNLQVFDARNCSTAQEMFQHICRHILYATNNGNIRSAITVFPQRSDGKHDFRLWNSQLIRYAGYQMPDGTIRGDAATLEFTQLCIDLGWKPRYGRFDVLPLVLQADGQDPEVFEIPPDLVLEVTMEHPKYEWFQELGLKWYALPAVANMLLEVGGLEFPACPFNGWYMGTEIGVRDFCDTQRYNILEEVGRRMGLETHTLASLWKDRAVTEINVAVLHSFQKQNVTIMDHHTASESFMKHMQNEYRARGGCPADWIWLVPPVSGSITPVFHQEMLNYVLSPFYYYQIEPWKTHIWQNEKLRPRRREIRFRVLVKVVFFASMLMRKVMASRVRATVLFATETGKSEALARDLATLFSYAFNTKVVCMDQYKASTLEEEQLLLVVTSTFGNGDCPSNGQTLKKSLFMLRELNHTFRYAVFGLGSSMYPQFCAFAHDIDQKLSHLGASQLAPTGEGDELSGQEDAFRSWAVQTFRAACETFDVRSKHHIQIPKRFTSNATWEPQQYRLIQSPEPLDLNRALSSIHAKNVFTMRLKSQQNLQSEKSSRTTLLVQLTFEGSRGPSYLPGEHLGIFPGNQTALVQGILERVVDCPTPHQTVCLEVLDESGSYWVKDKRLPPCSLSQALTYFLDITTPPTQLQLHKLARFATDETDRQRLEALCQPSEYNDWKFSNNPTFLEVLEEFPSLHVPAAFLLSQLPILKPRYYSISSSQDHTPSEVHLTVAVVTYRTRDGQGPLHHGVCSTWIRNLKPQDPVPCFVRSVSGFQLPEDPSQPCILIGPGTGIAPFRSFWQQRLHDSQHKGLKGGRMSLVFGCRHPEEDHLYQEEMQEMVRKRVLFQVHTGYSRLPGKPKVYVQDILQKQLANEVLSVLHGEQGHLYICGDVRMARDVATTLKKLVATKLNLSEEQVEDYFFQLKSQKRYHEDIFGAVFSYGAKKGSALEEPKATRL

RAW264.7 [6] = assay: Cytotoxicity against LPS-induced mouse RAW 264.7 cells assessed as cell viability measured by MTT assay; format: cell-based
RAW264.7 [7] = assay: Cytotoxicity against mouse RAW264.7 cells at 20 uM measured after 24 hrs; format: cell-based; settings: raw264.7, 24 h
L02 [8] = assay: Antiinflammatory activity against human L02 assessed as inhibition of LPS-induced NO production preincubated for 1 hrs followed by LPS stimulation and measured after 24 hrs by Griess assay relative to control; format: functional, cell-based
[9] = Metabolic stability in rat hepatocytes assessed as intrinsic clearance incubated up to 120 mins measured per million cells by LC-MS/MS analysis; format: ADME, cell-based, Hepatocyte; settings: read-out: CLH
[10] = Metabolic stability in human hepatocytes assessed as half life measured upto 120 mins by LC-MS/MS analysis; format: ADME, cell-based, Hepatocyte
[11] = Metabolic stability in human hepatocytes assessed as clearance incubated up to 120 mins measured per million cells by LC-MS/MS analysis; format: ADME, cell-based, Hepatocyte; settings: read-out: CLH
[12] = Metabolic stability in rat hepatocytes assessed as half life measured upto 120 mins by LC-MS/MS analysis; format: ADME, cell-based, Hepatocyte
Cytochrome P450 1A2 = target: T2, Cytochrome P450 1A2 (Homo sapiens, UniProt P05177); assay: Inhibition of CYP1A2 in human liver microsomes using Phenacetin as substrate measured after 20 mins by LC-MS/MS analysis; format: ADME
T2 sequence (P05177 whole entry): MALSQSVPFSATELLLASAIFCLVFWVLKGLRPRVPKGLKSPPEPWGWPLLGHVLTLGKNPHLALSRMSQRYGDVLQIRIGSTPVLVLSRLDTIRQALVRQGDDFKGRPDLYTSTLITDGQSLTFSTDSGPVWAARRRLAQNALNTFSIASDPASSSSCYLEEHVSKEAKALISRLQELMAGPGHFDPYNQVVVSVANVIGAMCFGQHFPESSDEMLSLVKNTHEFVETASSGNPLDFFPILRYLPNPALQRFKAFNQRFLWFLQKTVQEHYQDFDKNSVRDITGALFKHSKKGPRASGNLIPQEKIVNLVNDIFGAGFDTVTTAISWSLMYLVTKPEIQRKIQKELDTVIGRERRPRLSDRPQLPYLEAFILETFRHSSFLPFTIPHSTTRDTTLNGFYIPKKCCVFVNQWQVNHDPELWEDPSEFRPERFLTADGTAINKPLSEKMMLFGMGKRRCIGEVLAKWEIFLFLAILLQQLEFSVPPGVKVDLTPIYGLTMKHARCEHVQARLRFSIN

Compound | inhibition at 10 µM (RAW264.7 [4]) | Activity (RAW264.7 [7]) | IC50 (L02 [8]) | other results
COc1ccc(CNc2nc(/C=C/c3cc(OC)c(OC)c(OC)c3)nc3ccsc23)cc1 | 73.7% | Non-Toxic | > 1000 µM | IC50 (L02 [1]): 2050 µM; IC50 (RAW264.7 [2]): 7.54 µM; IC50 (RAW264.7 [3]): > 50 µM; IC50 [5]: 3.26 µM; IC50 (RAW264.7 [6]): > 50 µM
COc1ccc(Nc2nc(/C=C/c3cc(OC)c(OC)c(OC)c3)nc3ccsc23)cc1 | 52.5% | Non-Toxic | 279 µM | IC50 (L02 [1]): 279 µM; IC50 (RAW264.7 [2]): 10.7 µM; IC50 (RAW264.7 [3]): > 50 µM; IC50 [5]: 5.12 µM; IC50 (RAW264.7 [6]): > 50 µM
COc1ccc2c(c1)[C@]13CCCC[C@@H]1[C@H](C2)N(C)CC3 [DEXTROMETHORPHAN] |  |  |  | hepatocyte CLint [9]: 150 µL/min/1e6 cells; half-life [10]: 14.5 min; hepatocyte CLint [11]: 47.8 µL/min/1e6 cells; half-life [12]: 4.6 min
COc1cc(/C=C/c2nc(Nc3ccc(O)cc3)c3sccc3n2)cc(OC)c1OC | 97.7% | Non-Toxic | > 1000 µM | IC50 (L02 [1]): 2300 µM; IC50 (RAW264.7 [2]): 4.07 µM; IC50 (RAW264.7 [3]): > 50 µM; IC50 [5]: 1.89 µM; IC50 (RAW264.7 [6]): > 50 µM
COc1cc(/C=C/c2nc(NC3CC3)c3sccc3n2)cc(OC)c1OC | 90.7% | Non-Toxic | > 1000 µM | IC50 (L02 [1]): 2360 µM; IC50 (RAW264.7 [2]): 6.03 µM; IC50 (RAW264.7 [3]): > 50 µM; IC50 [5]: 4.32 µM; IC50 (RAW264.7 [6]): > 50 µM
O=c1cc(-c2ccccc2)oc2ccc3ccccc3c12 [BETA-NAPHTHOFLAVONE] |  |  |  | IC50 (Cytochrome P450 1A2): 0.0835 µM
COc1cc(/C=C/c2nc(Nc3ccc(C(F)(F)F)cc3)c3sccc3n2)cc(OC)c1OC | 55.4% | Non-Toxic | 436 µM | IC50 (L02 [1]): 436 µM; IC50 (RAW264.7 [2]): 9.36 µM; IC50 (RAW264.7 [3]): > 50 µM; IC50 [5]: 4.2 µM; IC50 (RAW264.7 [6]): > 50 µM
COc1ccc2[nH]c([S+]([O-])Cc3ncc(C)c(OC)c3C)nc2c1 (stereo not drawn) [OMEPRAZOLE] |  |  |  | hepatocyte CLint [9]: 51.4 µL/min/1e6 cells; half-life [10]: 28.2 min; hepatocyte CLint [11]: 24.6 µL/min/1e6 cells; half-life [12]: 13.5 min
Cc1ncc2n1-c1ccc(Cl)cc1C(c1ccccc1F)=NC2 [MIDAZOLAM] |  |  |  | hepatocyte CLint [9]: 176 µL/min/1e6 cells; half-life [10]: 16.3 min; hepatocyte CLint [11]: 42.6 µL/min/1e6 cells; half-life [12]: 3.9 min
O=C(O)Cc1ccccc1Nc1c(Cl)cccc1Cl [DICLOFENAC] |  |  |  | hepatocyte CLint [9]: 50.3 µL/min/1e6 cells; half-life [10]: 9.1 min; hepatocyte CLint [11]: 75.8 µL/min/1e6 cells; half-life [12]: 13.6 min
COc1cc(/C=C/c2nc(NCc3ccc(Cl)cc3)c3sccc3n2)cc(OC)c1OC | 65.5% | Non-Toxic | > 1000 µM | IC50 (L02 [1]): 4320 µM; IC50 (RAW264.7 [2]): 9.05 µM; IC50 (RAW264.7 [3]): > 50 µM; IC50 [5]: 4.23 µM; IC50 (RAW264.7 [6]): > 50 µM
CCOc1ccc(NC(C)=O)cc1 [PHENACETIN] |  |  |  | hepatocyte CLint [9]: 21.3 µL/min/1e6 cells; half-life [10]: 43.8 min; hepatocyte CLint [11]: 15.8 µL/min/1e6 cells; half-life [12]: 32.6 min
CN1CCN(c2nc(/C=C/c3ccco3)nc3ccsc23)CC1 | 43.9% | Non-Toxic | > 1000 µM | 
CN(C)c1nc(/C=C/c2ccccc2)nc2ccsc12 | 3.57% | Non-Toxic | > 1000 µM | 
CCCc1nn(C)c2c(NCCc3ccccc3)nc(CCc3cccnc3)nc12 | 36.5% | Non-Toxic | 783 µM | 
Clc1ccc(CNc2nc(/C=C/c3ccco3)nc3ccsc23)cc1 | 13% | Non-Toxic | > 1000 µM | 

Compound | inhibition at 10 µM (RAW264.7 [4]) | Activity (RAW264.7 [7]) | IC50 (L02 [8]) | other results
COc1cc(/C=C/c2nc(O)nc(NC(C)C)n2)cc(OC)c1OC | 34% | Non-Toxic | < 40 µM | 
Brc1ccc(CNc2nc(/C=C/c3ccccc3)nc3ccsc23)cc1 | 19.5% | Non-Toxic | > 1000 µM | 
COc1cc(/C=C/c2nc(N3CCOCC3)c3sccc3n2)cc(OC)c1OC | 12.2% | Non-Toxic | > 1000 µM | 
COc1cc(/C=C/c2nc(NCc3ccccc3)c3sccc3n2)cc(OC)c1OC | 71.9% | Non-Toxic | > 1000 µM | IC50 (L02 [1]): 1800 µM; IC50 (RAW264.7 [2]): 8.26 µM; IC50 (RAW264.7 [3]): > 50 µM; IC50 [5]: 3.62 µM; IC50 (RAW264.7 [6]): > 50 µM
Fc1ccccc1CCNc1nc(/C=C/c2ccccc2)nc2ccsc12 | 29.8% | Non-Toxic | > 1000 µM | 
COc1cc(/C=C/c2nc(NCc3ccco3)c3sccc3n2)cc(OC)c1OC | 46.5% | Non-Toxic | 189 µM | 
CCCc1nn(C)c2c(NC3CC3)nc(/C=C/c3ccc[n+]([O-])c3)nc12 | 29.2% | Non-Toxic | 580 µM | 
C[C@@H]1C[C@H]2[C@@H]3CCC4=CC(=O)C=C[C@]4(C)[C@@]3(F)[C@@H](O)C[C@]2(C)[C@@]1(O)C(=O)CO [DEXAMETHASONE] | 51.8% |  | 4620 µM | IC50 (L02 [1]): 4620 µM; IC50 (RAW264.7 [2]): 8.71 µM; IC50 (RAW264.7 [3]): > 50 µM; IC50 [5]: > 10 µM; IC50 (RAW264.7 [6]): > 50 µM
CNc1nc(/C=C/c2ccccc2)nc2ccsc12 | 21.9% | Non-Toxic | > 1000 µM | 
COc1cc(/C=C/c2nc(Cl)cc(NC(C)C)n2)cc(OC)c1OC | 29% | Non-Toxic | < 40 µM | 
C(=C\c1ccco1)/c1nc(N2CCOCC2)c2sccc2n1 | 28.1% | Non-Toxic | > 1000 µM | 
COc1cc(/C=C/c2nccc(NCCc3ccc(F)cc3)n2)cc(OC)c1OC | 47% | Non-Toxic | 544 µM | 
CCCc1nn(C)c2c(N3CCS(=O)(=O)CC3)nc(/C=C/c3nc(C)c(C)nc3C)nc12 | 51.6% | Non-Toxic | < 40 µM | 
COc1ccc(Nc2nc(/C=C/c3ccccc3)nc3ccsc23)cc1 | 21.9% | Non-Toxic | > 1000 µM | 
COc1cc(/C=C/c2nc(NCc3ccncc3)c3sccc3n2)cc(OC)c1OC | 76% | Non-Toxic | 374 µM | IC50 (L02 [1]): 374 µM; IC50 (RAW264.7 [2]): 6.35 µM; IC50 (RAW264.7 [3]): > 50 µM; IC50 [5]: 3.12 µM; IC50 (RAW264.7 [6]): > 50 µM
CCCc1nn(C)c2c(NCCc3ccccc3)nc(/C=C/c3cccnc3)nc12 | 77.4% | Non-Toxic | > 1000 µM | 
